# Test results: PubChem BioAssay (NCI)
#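 Grown in 96-well plates, cells were treated for 48 hours with each compound at five concentrations. Insufficient inhibition: endpoint recorded as highest concentration tested. GI50 marks 50% less growth. TGI is the concentration that stops growth completely.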
# Assays:
# Assay in all cases: NCI-60 cell line screen, 48 h
# NCI-H23 lung = test system: NCI-H23 lung
# SK-MEL-5 melanoma = test system: SK-MEL-5 melanoma
# HCT-15 colon = test system: HCT-15 colon
# SF-295 CNS = test system: SF-295 CNS
# TK-10 renal = test system: TK-10 renal
# HCT-116 colon = test system: HCT-116 colon
# LOX IMVI melanoma = test system: LOX IMVI melanoma
# K-562 leukemia = test system: K-562 leukemia
# T-47D breast = test system: T-47D breast
# UACC-257 melanoma = test system: UACC-257 melanoma
smiles,measurement,setting,value
O=C(O)CCNCCCNCCC(=O)O,TGI,NCI-H23 lung,> 100 µM
same,TGI,SK-MEL-5 melanoma,> 100 µM
same,TGI,HCT-15 colon,> 100 µM
same,TGI,SF-295 CNS,> 100 µM
same,TGI,TK-10 renal,> 100 µM
same,TGI,HCT-116 colon,> 100 µM
same,TGI,LOX IMVI melanoma,> 100 µM
same,TGI,K-562 leukemia,> 100 µM
c1ccc(-c2nc(-c3ccccc3SSc3ccccc3-c3nc(-c4ccccc4)nn3-c3ccccc3)n(-c3ccccc3)n2)cc1,TGI,T-47D breast,> 100 µM
same,TGI,NCI-H23 lung,> 100 µM
same,TGI,HCT-15 colon,> 100 µM
same,TGI,SF-295 CNS,> 100 µM
same,TGI,TK-10 renal,> 100 µM
same,TGI,HCT-116 colon,> 100 µM
same,TGI,LOX IMVI melanoma,> 100 µM
same,TGI,K-562 leukemia,> 100 µM
CCOC(=O)C(C)(C)Oc1ccc2c(-c3ccccc3)cc(=O)oc2c1,TGI,NCI-H23 lung,> 100 µM
same,TGI,SK-MEL-5 melanoma,26.9 µM
same,TGI,HCT-15 colon,> 100 µM
same,TGI,SF-295 CNS,> 100 µM
same,TGI,UACC-257 melanoma,75.5 µM
same,TGI,TK-10 renal,> 100 µM
same,TGI,HCT-116 colon,> 100 µM
same,TGI,LOX IMVI melanoma,49.4 µM
same,TGI,K-562 leukemia,> 100 µM
CCn1c(C)nn2c(=O)c3ccccc3nc2c1=O,TGI,NCI-H23 lung,> 100 µM
same,TGI,SK-MEL-5 melanoma,> 100 µM
same,TGI,HCT-15 colon,> 100 µM
same,TGI,SF-295 CNS,> 100 µM
same,TGI,UACC-257 melanoma,> 100 µM
same,TGI,TK-10 renal,> 100 µM
same,TGI,HCT-116 colon,> 100 µM
same,TGI,LOX IMVI melanoma,> 100 µM
same,TGI,K-562 leukemia,> 100 µM
C1=C2/CC[C@H](Sc3ccccc3)C2C2(CCCCC/1)OCCO2 (stereo partly specified),TGI,NCI-H23 lung,63.3 µM
same,TGI,SF-295 CNS,> 100 µM
same,TGI,UACC-257 melanoma,45.2 µM
same,TGI,TK-10 renal,> 100 µM
same,TGI,HCT-116 colon,37.1 µM
same,TGI,LOX IMVI melanoma,28.9 µM
same,TGI,K-562 leukemia,> 100 µM
CC(=O)[CH-]C(=O)c1ccccc1.CC(=O)[CH-]C(=O)c1ccccc1.CN(C)c1ccc([O-])cc1.CN(C)c1ccc([O-])cc1.Cl.[Ti+4],GI50,NCI-H23 lung,21.1 µM
same,TGI,NCI-H23 lung,> 31.6 µM
same,GI50,SK-MEL-5 melanoma,40 µM
same,TGI,SK-MEL-5 melanoma,> 88 µM
same,GI50,HCT-15 colon,25.5 µM
same,TGI,HCT-15 colon,> 31.6 µM
same,GI50,SF-295 CNS,46.3 µM
same,TGI,SF-295 CNS,> 100 µM
same,GI50,UACC-257 melanoma,> 31.6 µM
same,TGI,UACC-257 melanoma,> 31.6 µM
same,GI50,TK-10 renal,71.6 µM
same,TGI,TK-10 renal,> 100 µM
same,GI50,HCT-116 colon,18.1 µM
same,TGI,HCT-116 colon,> 31.6 µM
same,GI50,LOX IMVI melanoma,26 µM
same,TGI,LOX IMVI melanoma,> 100 µM
same,GI50,K-562 leukemia,9.89 µM
same,TGI,K-562 leukemia,> 31.6 µM
Cc1ccc(Cl)c2c(N=Nc3ccccc3[N+](=O)[O-])c(O)[nH]c12,TGI,T-47D breast,> 100 µM
same,TGI,NCI-H23 lung,> 100 µM
same,TGI,HCT-15 colon,> 100 µM
same,TGI,SF-295 CNS,> 100 µM
same,TGI,UACC-257 melanoma,> 100 µM
same,TGI,TK-10 renal,> 100 µM
same,TGI,HCT-116 colon,> 100 µM
same,TGI,LOX IMVI melanoma,> 100 µM
same,TGI,K-562 leukemia,> 100 µM
CC1(C(=O)O)CCC[C@@]2(C)C1CC[C@@]1(C)c3cocc3CCC21 (stereo partly specified),TGI,NCI-H23 lung,> 100 µM
same,TGI,SK-MEL-5 melanoma,> 100 µM
same,TGI,HCT-15 colon,> 100 µM
same,TGI,SF-295 CNS,> 100 µM
same,TGI,UACC-257 melanoma,> 100 µM
same,TGI,TK-10 renal,> 100 µM
same,TGI,HCT-116 colon,> 100 µM
same,TGI,LOX IMVI melanoma,> 100 µM
same,TGI,K-562 leukemia,> 100 µM
Cc1ccsc1C(=S)Nc1ccc(Cl)c(/C=N/OC(C)(C)C)c1,TGI,T-47D breast,> 100 µM
same,TGI,NCI-H23 lung,> 100 µM
same,TGI,SK-MEL-5 melanoma,> 100 µM
same,TGI,HCT-15 colon,> 100 µM
same,TGI,SF-295 CNS,> 100 µM
same,TGI,UACC-257 melanoma,69.1 µM
same,TGI,TK-10 renal,41.1 µM
same,TGI,HCT-116 colon,> 100 µM
same,TGI,LOX IMVI melanoma,48.8 µM
Clc1ccccc1C(SCc1ccccc1)SCc1ccccc1,TGI,NCI-H23 lung,> 100 µM
same,TGI,SK-MEL-5 melanoma,> 100 µM
same,TGI,HCT-15 colon,> 100 µM
same,TGI,SF-295 CNS,> 100 µM
same,TGI,UACC-257 melanoma,> 100 µM
same,TGI,TK-10 renal,> 100 µM
same,TGI,HCT-116 colon,> 100 µM
same,TGI,K-562 leukemia,> 100 µM
COC(CCC[N+](C)(C)C)CC[N+](C)(C)C (stereo unspecified),TGI,NCI-H23 lung,> 100 µM
same,TGI,SK-MEL-5 melanoma,> 100 µM
same,TGI,HCT-15 colon,> 100 µM
same,TGI,SF-295 CNS,> 100 µM
same,TGI,UACC-257 melanoma,> 100 µM
same,TGI,TK-10 renal,> 100 µM
same,TGI,HCT-116 colon,> 100 µM
same,TGI,K-562 leukemia,> 100 µM
CNC(=S)OCCC(C)CCCC(C)C (stereo unspecified),TGI,NCI-H23 lung,36.6 µM
same,TGI,SK-MEL-5 melanoma,31.6 µM
same,TGI,HCT-15 colon,27.9 µM
same,TGI,SF-295 CNS,36 µM
same,TGI,UACC-257 melanoma,30.1 µM
same,TGI,TK-10 renal,25.5 µM
same,TGI,HCT-116 colon,30.7 µM
same,TGI,LOX IMVI melanoma,26.2 µM
same,TGI,K-562 leukemia,30.9 µM
CC(C)=CCC\C(C)=C/C=C/C(C)=C\C=C\C(C)=C/C=C/C=C(C)\C=C\C=C(C)/C=C/C=C(/C)CCC=C(C)C,TGI,SK-MEL-5 melanoma,> 100 µM
same,TGI,HCT-15 colon,> 100 µM
same,TGI,SF-295 CNS,> 100 µM
same,TGI,UACC-257 melanoma,> 100 µM
same,TGI,TK-10 renal,> 100 µM
same,TGI,HCT-116 colon,> 100 µM
same,TGI,LOX IMVI melanoma,> 100 µM
same,TGI,K-562 leukemia,> 100 µM
COC(=O)C1(C(C)C)CCc2c(OC)ccc(OC)c2C1=O (stereo unspecified),TGI,SK-MEL-5 melanoma,> 100 µM
same,TGI,HCT-15 colon,> 100 µM
same,TGI,SF-295 CNS,> 100 µM
same,TGI,UACC-257 melanoma,> 100 µM
same,TGI,TK-10 renal,> 100 µM
same,TGI,HCT-116 colon,> 100 µM
same,TGI,LOX IMVI melanoma,> 100 µM
same,TGI,K-562 leukemia,> 100 µM
Nc1ccccc1S(=O)(=O)N(CC(=O)O)c1ccccc1,TGI,NCI-H23 lung,> 100 µM
same,TGI,SK-MEL-5 melanoma,> 100 µM
same,TGI,HCT-15 colon,> 100 µM
same,TGI,UACC-257 melanoma,> 100 µM
same,TGI,TK-10 renal,> 100 µM
same,TGI,LOX IMVI melanoma,> 100 µM
same,TGI,K-562 leukemia,> 100 µM
O=C(CCc1nc(=S)[nH][nH]1)Nc1ccc(Cl)c(Cl)c1,TGI,NCI-H23 lung,> 100 µM
same,TGI,SK-MEL-5 melanoma,55.9 µM
same,TGI,HCT-15 colon,65.6 µM
same,TGI,SF-295 CNS,> 100 µM
same,TGI,UACC-257 melanoma,> 100 µM
same,TGI,TK-10 renal,> 100 µM
same,TGI,HCT-116 colon,> 100 µM
same,TGI,K-562 leukemia,> 100 µM
COC(=O)c1ccccc1NC(=O)C(=O)Cc1nc2c3c(ccc2[nH]c1=O)C(=O)c1ccccc1C3=O,TGI,NCI-H23 lung,47.2 µM
same,TGI,SK-MEL-5 melanoma,13.6 µM
same,TGI,HCT-15 colon,> 100 µM
same,TGI,UACC-257 melanoma,62.8 µM
same,TGI,TK-10 renal,96.4 µM
same,TGI,HCT-116 colon,34.7 µM
same,TGI,LOX IMVI melanoma,44.6 µM
same,TGI,K-562 leukemia,> 100 µM
O=C(Nc1nc2ccc([N+](=O)[O-])cc2s1)C(=O)C(C1OC(=O)c2ccccc21)[N+](=O)[O-] (stereo unspecified),TGI,NCI-H23 lung,> 100 µM
same,TGI,SK-MEL-5 melanoma,> 100 µM
same,TGI,HCT-15 colon,> 100 µM
same,TGI,SF-295 CNS,> 100 µM
same,TGI,UACC-257 melanoma,> 100 µM
same,TGI,TK-10 renal,> 100 µM
same,TGI,HCT-116 colon,> 100 µM
same,TGI,LOX IMVI melanoma,> 100 µM
same,TGI,K-562 leukemia,> 100 µM
CCN1CCN(Cc2ccc(NC(=O)c3cccc(C#Cc4cccc5[nH]nc(N)c45)c3)cc2C(F)(F)F)CC1,GI50,T-47D breast,0.975 µM
same,TGI,T-47D breast,3.39 µM
same,GI50,UACC-257 melanoma,1.05 µM
same,TGI,UACC-257 melanoma,2.82 µM
same,GI50,TK-10 renal,0.631 µM
same,TGI,TK-10 renal,1.75 µM
same,TGI,K-562 leukemia,0.154 µM
CCN(CC)N=Nc1c(C(N)=O)n[nH]c1C,TGI,T-47D breast,> 100 µM
same,TGI,NCI-H23 lung,> 100 µM
same,TGI,SK-MEL-5 melanoma,> 100 µM
same,TGI,HCT-15 colon,> 100 µM
same,TGI,SF-295 CNS,> 100 µM
same,TGI,UACC-257 melanoma,> 100 µM
same,TGI,TK-10 renal,> 100 µM
same,TGI,HCT-116 colon,> 100 µM
same,TGI,LOX IMVI melanoma,> 100 µM
NC1=NCCC1(c1ccccc1)c1ccccn1 (stereo unspecified),TGI,NCI-H23 lung,> 100 µM
same,TGI,SK-MEL-5 melanoma,> 100 µM
same,TGI,HCT-15 colon,> 100 µM
same,TGI,SF-295 CNS,> 100 µM
same,TGI,UACC-257 melanoma,> 100 µM
same,TGI,TK-10 renal,> 100 µM
same,TGI,HCT-116 colon,> 100 µM
same,TGI,K-562 leukemia,> 100 µM
CN(C)N=Nc1ccc(C(N)=O)cc1,TGI,NCI-H23 lung,> 100 µM
same,TGI,SK-MEL-5 melanoma,> 100 µM
same,TGI,HCT-15 colon,> 100 µM
same,TGI,SF-295 CNS,> 100 µM
same,TGI,UACC-257 melanoma,> 100 µM
same,TGI,TK-10 renal,> 100 µM
same,TGI,HCT-116 colon,> 100 µM
same,TGI,LOX IMVI melanoma,> 100 µM
same,TGI,K-562 leukemia,> 100 µM
O=C(O)CCC(NC(=O)c1ccc(Nc2nc3ccccc3nc2-c2cccs2)cc1)C(=O)O (stereo unspecified),TGI,NCI-H23 lung,> 100 µM
same,TGI,SK-MEL-5 melanoma,> 100 µM
same,TGI,HCT-15 colon,> 100 µM
same,TGI,SF-295 CNS,> 100 µM
same,TGI,UACC-257 melanoma,> 100 µM
same,TGI,TK-10 renal,> 100 µM
same,TGI,HCT-116 colon,> 100 µM
same,TGI,LOX IMVI melanoma,> 100 µM
same,TGI,K-562 leukemia,> 100 µM
